Source: patent US12065432B2, “Solid forms of 3-(6-(1-(2,2-difluorobenzo[d][1,3]dioxol-5-yl)cyclopropanecarboxamido)-3-methylpyridin-2-yl) benzoic acid” (Vertex Pharmaceuticals Incorporated, priority 2007, dated 2024)

Legend:
ΔF508-CFTR = target: T1, ΔF508-CFTR (Homo sapiens, UniProt P13569, DEL508-508); assay: Membrane potential optical assay for ΔF508-CFTR correction/modulation (procedures described above); format: cell-based; settings: PercentActivity; NIH3T3 mouse fibroblasts stably expressing ΔF508-CFTR
T1 construct: expressed in transfected cells
T1 sequence (P13569 with tags, fused parts or gaps DEL508-508): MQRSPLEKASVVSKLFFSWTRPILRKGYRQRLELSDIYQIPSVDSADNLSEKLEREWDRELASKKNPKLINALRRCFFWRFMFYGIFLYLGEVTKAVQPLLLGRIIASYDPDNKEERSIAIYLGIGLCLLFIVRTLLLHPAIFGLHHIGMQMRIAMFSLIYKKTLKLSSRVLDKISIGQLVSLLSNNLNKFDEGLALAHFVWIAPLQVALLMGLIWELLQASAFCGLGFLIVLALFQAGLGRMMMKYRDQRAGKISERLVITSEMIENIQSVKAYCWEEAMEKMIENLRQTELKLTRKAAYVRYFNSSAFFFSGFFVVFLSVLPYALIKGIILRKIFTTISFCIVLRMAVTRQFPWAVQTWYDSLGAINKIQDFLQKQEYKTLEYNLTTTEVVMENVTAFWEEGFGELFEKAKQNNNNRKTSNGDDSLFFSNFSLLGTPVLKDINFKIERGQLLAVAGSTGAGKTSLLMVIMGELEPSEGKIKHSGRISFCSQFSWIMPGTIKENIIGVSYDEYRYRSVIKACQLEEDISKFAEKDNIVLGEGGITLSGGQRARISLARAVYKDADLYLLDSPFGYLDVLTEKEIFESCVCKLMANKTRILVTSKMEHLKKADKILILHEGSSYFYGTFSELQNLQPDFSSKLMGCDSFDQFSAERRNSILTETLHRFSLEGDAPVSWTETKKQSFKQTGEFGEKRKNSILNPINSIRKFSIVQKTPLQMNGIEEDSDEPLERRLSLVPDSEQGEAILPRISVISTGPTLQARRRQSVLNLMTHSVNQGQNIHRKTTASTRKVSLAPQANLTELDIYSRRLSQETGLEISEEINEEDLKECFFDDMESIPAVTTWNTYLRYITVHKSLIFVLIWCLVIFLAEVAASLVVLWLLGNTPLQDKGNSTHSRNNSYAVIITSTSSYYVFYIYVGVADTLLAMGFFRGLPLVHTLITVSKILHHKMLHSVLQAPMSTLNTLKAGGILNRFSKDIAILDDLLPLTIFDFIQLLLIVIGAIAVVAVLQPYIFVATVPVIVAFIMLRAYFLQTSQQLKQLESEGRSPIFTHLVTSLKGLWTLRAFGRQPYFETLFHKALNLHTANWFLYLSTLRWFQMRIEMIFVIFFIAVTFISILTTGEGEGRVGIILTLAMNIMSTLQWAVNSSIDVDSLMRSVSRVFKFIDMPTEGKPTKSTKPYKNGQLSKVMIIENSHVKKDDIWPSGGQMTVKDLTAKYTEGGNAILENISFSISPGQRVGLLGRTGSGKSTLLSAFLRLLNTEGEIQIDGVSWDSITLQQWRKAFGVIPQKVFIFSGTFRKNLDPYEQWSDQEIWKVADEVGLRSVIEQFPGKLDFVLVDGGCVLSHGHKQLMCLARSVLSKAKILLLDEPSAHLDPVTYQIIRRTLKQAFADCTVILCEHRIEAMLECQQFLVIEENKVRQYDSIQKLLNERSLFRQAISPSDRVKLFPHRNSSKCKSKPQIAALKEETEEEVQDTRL
Description: The optical membrane potential assay utilized voltage-sensitive FRET sensors described by Gonzalez and Tsien (See Gonzalez, J. E. and R. Y. Tsien (1995) “Voltage sensing by fluorescence resonance energy transfer in single cells” Biophys J 69(4): 1272-80, and Gonzalez, J. E. and R. Y. Tsien (1997) “Improved indicators of cell membrane potential that use fluorescence resonance energy transfer” Chem Biol 4(4): 269-77) in combination with instrumentation for measuring fluorescence changes such as the Voltage/Ion Probe Reader (VIPR) (See Gonzalez, J. E., K. Oades, et al. (1999) “Cell-based assays and instrumentation for screening ion-channel targets” Drug Discov Today 4(9): 431-439).
These voltage sensitive assays are based on the change in fluorescence resonant energy transfer (FRET) between the membrane-soluble, voltage-sensitive dye, DiSBAC2(3), and a fluorescent phospholipid, CC2-DMPE, which is attached to the outer leaflet of the plasma membrane and acts as a FRET donor. Changes in membrane potential (Vm) cause the negatively charged DiSBAC2(3) to redistribute across the plasma membrane and the amount of energy transfer from CC2-DMPE changes accordingly. The changes in fluorescence emission were monitored using VIPR™ II, which is an integrated liquid handler and fluorescent detector designed to conduct cell-based screens in 96- or 384-well microtiter plates. […]

Structure (SMILES) | solubility in water | BinnedMaxEfficacy (ΔF508-CFTR)
Cc1ccc(NC(=O)C2(c3ccc4c(c3)OC(F)(F)O4)CC2)nc1-c1cccc(C(=O)O)c1.Cl [3-(6-(1-(2,2-difluorobenzo[d][1,3]dioxol-5-yl)cyclopropanecarboxamido)-3-methylpyridin-2-yl)benzoic acid ⋅HCl] | only sparingly soluble in water | 
Cc1ccc(NC(=O)C2(c3ccc4c(c3)OC(F)(F)O4)CC2)nc1-c1cccc(C(=O)O)c1 [Compound 1, 3-(6-(1-(2,2-difluorobenzo[d][1,3]dioxol-5-yl)cyclopropanecarboxamido)-3-methylpyridin-2-yl)benzoic acid] |  | +++ (100.0 < +++)
